# Entries after “also recorded” stand apart in the source; their conditions may differ. Structures can show the parent of a compound that is named as a salt. Where two headings read alike, the source gives them in different places.
# Legend:
# [1] = Storage stability of BAPN base; format: physicochemical
# [2] = Skin penetration of BAPN base versus BAPN fumarate; format: in vitro ADME; conditions: BAPN base vs BAPN fumarate
# [3] = system: lysyl oxidase; conditions: single systemic moderate dose; cited from earlier work
# [4] = systemic, dogs; cited from earlier work
# [5] = system: lysyl oxidase; experiment: Lysyl oxidase activity in granuloma tissue after topical application (Example 4); format: in vivo, rats, Sprague-Dawley
# Experimental: Two groups of rats, four rats in each group, 250 g body weight, Sprague-Dawley males, were implanted subcutaneously with a polyvinylalcohol sponge (Ivalon, Unipoint Labs, New Jersey) in the dorsal region through an incision distal from the placement of the sponge.
# A solution of 0.1 ml of β-aminopropionitrile (200 mg BAPN/ml) was applied every 12 hours onto the skin over the implanted sponge for a total of seven days. Then the rats were sacrificed, reactive granuloma tissue excised and used for the determination of the activity of lysyl oxidase.
# There were four rats in each group.
# Variability is given by standard deviation.
# Significance of the results tested by Student's t-test.
# [6] = system: human collagen; conditions: in vivo; cited from earlier work
# [7] = systemic, rats; cited from earlier work
# [8] = Topical cytotoxicity of BAPN; format: in vivo
# Description: Although the pathogenesis of the above disorders may differ, in every one it was postulated that the physical properties of the scar tissue were affected by abnormal cross-linking of the collagenous component. A variety of methods was proposed and used to alleviate the problems of abnormal reactivity of polymerized scar tissue (Peacock and Van Winkle 1976). […] The ideal method of topical administration would be the noninvasive percutaneous resorption of BAPN painted onto the skin as proposed in this disclosure. […] These findings assured me that topical BAPN is safe, effective and optimal therapeutic regimen to achieve significant interference with maturation of collagenous structure in tissues with an injury.
# [9] = system: collagen; conditions: cited from earlier work
# [10] = Recovery from urine after administration on skin through hydrophilic bag container (Example 2); format: in vivo, rats
# Experimental: The experimental conditions were similar to those of Example 1 for Group 6. A 0.4 ml solution of 1.1M β-aminopropionitrile fumarate containing 200 mg/ml and 2 μCi of the same ^14 C labeled substance was placed into a hydrophilic bag membrane. This membrane contained 80% water. The container bag was placed onto the shaved skin area of 4 cm^2, covered with impermeable occlusive dressing represented by Blenderm surgical tape (3M, Minnesota). The rats were placed in metabolic cages and at defined time intervals, the urine was collected and the amount of radioactive drug determined.
# Time indicates the urine sampling period. Recovery is given in percent of the dose administered into the hydrophilic bag.
# [11] = system: lysyl oxidase; conditions: cited from earlier work
# [12] = system: scleroderma; conditions: cited from earlier work
# [13] = Work of flexion of tenolyzed flexor profundus tendon (Example 5); format: in vivo, White Leghorn chickens
# Description: will document the therapeutic effectiveness of direct infusions of β-aminopropionitrile fumarate solution into the dissected peritendinous adhesions in a rooster model of tendon injury.
# Adult White Leghorn chickens were sedated with Pentothal, fixed to the operating table and given metacarpal local anesthesia with 1% xylocaine. Following surgical prep of the foot, a tourniquet was applied. Through a mid-lateral incision the sublimus tendon was removed from the long digit of both feet and a 4-0 braided stainless steel wire was passed through the entire length of the remaining profundus tendon to promote injury to the tendon by "scarification". The incision was closed with a continuous nylon suture, 4-0. Both feet were then incorporated in a plaster of Paris dressing with the feet in a functional position permitting the animals to walk while in the plaster.
# Three weeks later the animals were prepared for surgery as above and the original incision was opened. A complete tenolysis was performed freeing the profundus tendon from surrounding fibrotic adhesions. […]
# After 5 days of BAPN application the animals were sacrificed, the plaster dressings removed, and the legs amputated. […] The leg was then mounted in an Instron Tensiometer and measured traction was applied to the flexor profundus tendon at a rate of 2.5 cm/min while the flexion of the three digital joints was measured. […]
# [14] = Percutaneous absorption of BAPN-fumarate, drug recovery in urine (Example 1); format: in vivo, rats, Sprague Dawley
# Experimental: Adult rats, Sprague Dawley strain, were shaved on the dorsum. A 0.1 ml solution of 0.16M β-aminopropionitrile fumarate, containing 30 mg BAPN/ml of phosphate buffer (0.1M, pH 7.2) and for easy detection 2 μCi of ^14 C-β-aminopropionitrile fumarate was painted on the shaved skin area 2×2 cm of a rat. In another rat, the shaved skin was washed first with 2% Ivory soap, in the next group the skin area after painting was covered with occlusive bandage. In another group of rats (Table 1) the drug was administered onto the skin the drug in 60% dimethyl sulfoxide, a solvent known to increase percutaneous absorption. Finally, in the last group (Table 1), the basic solution was administered into a small container made of a hydrogel polymer. This hydrogel is characterized by containing 80% water. It makes good contact with the skin, allows penetration of the drug through the container wall, hydrates the skin under the occlusive dressing, thus enhancing the percutaneous transport.
# ^14 C--BAPNfumarate, 2 μCi in 30 mg BAPNfumarate/ml, 0.1 ml
# *% recovered in 24 hours
# [15] = Acute toxicity, LD50 (Example 3); set-up: species or system CD-1 mice; conditions: mouse, in vivo, 24-hour observation
# Experimental: The determination of lethal dose, killing within a certain time after the administration of the tested drug 50% of the exposed animals, is a standard method of evaluation of the toxicity of a drug.
# A total of 40 male CD-1 mice with a body weight of 20 g were injected either intraperitoneally with β-aminopropionitrile fumarate or the drug was applied in a solution onto the shaved dorsal aspect of the skin. Four dosage levels spaced in geometric progression were evaluated using five animals for each dose.
# [16] = system: collagen; conditions: cited from earlier work; remark: listed apart in the source
# [17] = system: monoamine oxidase (MAO); conditions: cited from earlier work
# [18] = system: lysyl oxidase; conditions: isoniazid with BAPN; cited from earlier work
smiles,measurement,setting,value
N#CCCN [BAPN base],Stability under storage,[1],"unstable under storage, undergoing hydrolysis forming ammonia and toxic acrylonitrile"
same,Skin penetration relative to BAPN fumarate,[2],approximately five times faster
same,Skin penetration relative to BAPN fumarate,[2]; listed as BAPN-base,higher penetration
"N#CCCN [BAPN, β-aminopropionitrile]",Time to recovery of lysyl oxidase activity in granuloma tissue,[3],6 to 12 h
same,Side effects,[4],undesirable side effects
same,Tendon gliding / joint stiffness,[4],significantly improve the tendon gliding fraction or reduce stiffness
same,Inhibition of lysyl oxidase in granuloma tissue,[5]; painted onto skin over implanted sponge,significant inhibition of the enzyme activity in the lesion; also recorded: effectively inhibits lysyl oxidase in granuloma tissue
same,Covalent bonding of human collagen / clinical benefit,[6],decreased covalent bonding of human collagen with significant clinical benefit was demonstrated
same,Hypersensitivity,[6],a significant number of the patients exhibited hypersensitivity to the agent
same,Side effects,[7],undesirable side effects
same,Tendon gliding / joint stiffness,[7],significantly improve the tendon gliding fraction or reduce stiffness
same,"Topical cytotoxicity, morphological or ultrastructural",[8],no morphological or ultrastructural evidence of topical cytotoxicity is found
same,General toxicity at lathyrogenic dosages,"[9]; systemic, animals","the animals stop growing, lose body weight and lower their food intake"
same,Blocking the polymerization of collagen,[9]; various animal models of fibrotic lesion,very effective
same,Recovery in Urine (In % of the Total Dose),[10]; 4 hours,0.5%
same,Recovery in Urine (In % of the Total Dose),[10]; 8 hours,1.01%
same,Recovery in Urine (In % of the Total Dose),[10]; 12 hours,2.37%
same,Recovery in Urine (In % of the Total Dose),[10]; 24 hours,5.40%
same,Recovery in Urine (In % of the Total Dose),[10]; 72 hours,9.9%
same,Recovery in Urine (In % of the Total Dose),[10]; 96 hours,15.2%
same,Recovery in Urine (In % of the Total Dose),[10]; 120 hours,22.5%
same,Concentration inhibiting lysyl oxidase,[11],10^-7 M
same,Effectiveness as lathyrogenic agent on lysyl oxidase,[11],the most effective
same,Reversibility of lysyl oxidase inhibition,[11],irreversible
same,"Toxic side effects, short-term treatment","[12]; 2 g/day, short-term",no toxic side effects were noted
same,"Adverse reactions, longer courses",[12]; longer courses of treatment,"prohibitive reactions, such as allergic skin rash and hemolytic anemia"
"N#CCCN [BAPN-fumarate, β-aminopropionitrile fumarate]",Tendon gliding,[13]; topical infusion,glided more easily; much lower force was needed to flex the finger
same,Work of Flexion (Mean),"[13]; topical infusion every 12 hours for 5 days, 300 mg/ml, SD 4.25, saline control 44.8 (SD 9.9), P < 0.01",13.10 gm/degree
same,"Increase of delivery, Group 6 compared with Group 1",[14]; hydrophilic container with occlusive dressing vs phosphate buffer on intact skin,~40 times
same,"Drug Recovery in the Urine, % Recovered in 6 hours",[14]; in phosphate buffer in 60% DMSO,11.66%
same,"Drug Recovery in the Urine, % Recovered in 6 hours","[14]; in phosphate buffer in 60% DMSO, skin washed in 2% Ivory soap",10.10%
same,"Drug Recovery in the Urine, % Recovered in 6 hours",[14]; in phosphate buffer on intact skin,0.97%
same,"Drug Recovery in the Urine, % Recovered in 6 hours","[14]; in phosphate buffer, skin washed with 2% Ivory soap",2.17%
same,"Drug Recovery in the Urine, % Recovered in 6 hours","[14]; in phosphate buffer, skin washed with 2% Ivory soap, occlusive bandage",10.56%
same,"Drug Recovery in the Urine, % recovered in 24 hours","[14]; in phosphate buffer, skin washed with 2% Ivory soap, hydrophilic container, occlusive bandage, 24 hours",35.00%
same,Lysyl Oxidase Activity in the granuloma tissue,"[5]; topical, 0.1 ml of 200 mg/ml every 12 hours for seven days, control 36.2 ± 7.1, P < 0.001, standard deviation",1.8 ± 0.3 DPM/mg protein
same,LD50 at 24 h,"[15]; ip, intraperitoneally",3000 mg/kg
same,LD50 at 24 h,"[15]; topical or ocular, percutaneously",23100 mg/kg
same,Release / penetration over time,[10]; 120 hours of observation,continuous at the constant rate
CC(C)(S)[C@@H](N)C(=O)O [D-penicillamine],Changes in metal content in tissues and fluids,[16]; after treatment,Striking changes in the metal content in various tissues and fluids
same,Acute hypersensitivity reactions,"[16]; clinical studies, systemic",high incidence of acute hypersensitivity reactions
same,Decrease of structural stability of collagen,[16]; systemic,well-documented
same,Direct inhibition of lysyl oxidase,[11],direct inhibition of lysyl oxidase by D-penicillamine was demonstrated
N#CCN [aminoacetonitrile],Effectiveness as lathyrogenic agent on lysyl oxidase,[11],the most effective
NNC(=O)c1ccncc1 [isoniazid],Monoamine oxidase (MAO) inhibition,[17],weak lysyl oxidase and MAO inhibitor
same,Lysyl oxidase inhibition,[11],weak lysyl oxidase and MAO inhibitor
same,Lathyritic effect of BAPN in combination,[18],potentiate the lathyritic effects of BAPN
C#CCN(C)Cc1ccccc1 [pargyline],Monoamine oxidase (MAO) inhibition,[17],monoamine oxidase (MAO) inhibitor

# From US4485088A, “Method of treatment of fibrotic lesions by topical administration of lathyrogenic drugs” (Bio-Products, Inc., priority 1982, dated 1984)
